Experimental data from US8946507B2, “Method of selectively producing male or female sterile plants” (priority 2002, dated 2015).

Assays:
[1] = test system: Nicotiana tabacum var. Samsun (transgenic, D-amino acid oxidase under female floral promoter); test: Conditional female sterility of transgenic tobacco expressing D-amino acid oxidase in female floral tissue, treated with D-amino acids; format: in vivo; conditions: for seed production after treatment: foliar spray usually 0.25-20 kg/ha, root drench or 10-200 mM solution into buds, prior to or during early flower formation; for viable pollen production after treatment: same treatment conditions as for seed production
Experimental: Tobacco leaf discs are transformed with the recombinant binary vectors using methods similar to those described in Horsch et al (1985) Science, 227, 1229-1231 Many variations of the method may be used. The binary vector can be transformed into, for example, Agrobacterium tumefaciens strain LBA 4404 using the freeze thaw method of transformation. Tobacco transformation and whole plant regeneration is performed using Nicotiana tabacum var. Samsun according to protocols described by Draper et al (Plant Genetic Transformation, Blackwell Sci. Pub. 1989). Transformation events are selected on MS-media containing kanamycin or other suitable antibiotic. The presence of integrated transgenes is confirmed by PCR. Plants are regenerated and allowed to reach maturity and selfed on to produce seed. Northern and/or Western analysis is used to confirm tissue-specific expression of the D-amino acid oxidase genes. […] Seeds of the T1 generation are planted out. Once plantlets have grown to a sufficient size they are tested by PCR for the presence of transgene. PCR positive plants are transferred to the greenhouse. […] A subset of these (putatively) conditionally sterile plants are treated with D-phosphinothricin or D-alanine or D leucine or D asparagine or D methionine or D-aspartate or D-glutamate in various amounts and at varying growth stages. […] For example these amino acids are pure D enantiomers or, alternatively, are DL racemates. For example, they are applied as a foliar spray, prior to or during the early stages of flower formation, at rates usually between 0.25 and 20 kg/ha. Amino acids which may crystallise out of solution on the leaves following foliar application may be redissolved and remobilised for leaf uptake by further applications of water as a spray mist. Amino acids are, for example, also applied as a root drench and optionally, further applied as ˜50 ul of a 10-200 mM solution flooded directly into the buds of emerging florets. Pollen from the treated plants is collected and viability is tested. […] Control plants are both transgenic and non-transgenic and are grown under identical conditions and under an identical regime of physical treatments except that treatment solutions are either water or an equivalent concentration of pure L-amino acid.

[2] = test system: mutant forms of R. gracilis D amino acid oxidase; test: Oxygen electrode assay, control experiments with pure enantiomers; format: biochemical, Rhodotorula gracilis; conditions: rate relative to DL phosphinothricin, depending on concentration
Experimental: Approximately 7 g wet weight of cells is washed in water. The cells are resuspended in an equal volume of 50 mM/Mops/KOH buffer at pH 7.0 containing 2 mM EDTA, 2 mM DTT and 0.01 mM FAD. Cells are evenly suspended using a glass homogeniser and then disrupted using a one shot head in the Constant Systems (BudBrooke Rd, Warwick U.K.) Basic Z cell disrupter at 13500 psi. The crude extract is kept cold (˜4° C.) centrifuged at 30,000 gav for 1 h and the pellet discarded. Some of the extract protein is run out on an SDS PAGE gel stained with Coomassie Blue and, through side by side comparison with similarly prepared extracts of cells containing only ‘empty’ pET vector it is estimated that 2-50% of the total soluble protein in the extract is D-amino acid oxidase. Some of the extract protein is exchanged into 50 mM Mops/KOH buffer at pH 7.0 containing 0.01 mM FAD. This is diluted with the same buffer in a standard oxygen electrode cell (calibrated at 25° C. between zero and a saturated concentration of oxygen). Optionally, the D-amino acid oxiadse is further purified using ion-exchange, phenyl sepharose, fractional ammonium sulphate precipitation and gel filtration. Assays, at 25° C., are started by addition of a 200 mM solution of the ammonium salt of DL phosphinothricin to the diluted enzyme. […] Rates of oxygen consumption (after substraction of any drift in the bases line) are measured. […]

[3] = target: T1, M213R (arginine replacement for methionine) mutant form of R. gracilis D amino acid oxidase (Rhodotorula toruloides, UniProt P80324, M213R); test: Oxygen electrode assay of D-amino acid oxidase activity, M213R mutant, crude E. coli extract; format: biochemical; conditions: 25° C., 50 mM Mops/KOH pH 7.0, 0.01 mM FAD; ammonium salt of DL phosphinothricin; estimated enzyme purity in extract 35+/-15% of total protein
T1 construct: made in house; host or cells: E. coli BL21 DE3 (Novagen pET 24A, T7 promoter)
From the text: (§1) Additionally a series of particular DNA sequences encoding particularly targeted D-amino acid oxidase enzymes are generated. In particular, genes encoding Rhodotorula gracilis D amino acid oxidase with an arginine, serine, cysteine, lysine, asparagine or alanine replacing the methionine at position 213 and/or a histidine, serine, cysteine, asparagine or alanine replacing the tyrosine at position 238. The methods used are the same as described above except that, rather than a mixture of oligonucleotides, individual oligonucleotide pairs are designed and used to effect each single or double amino acid change. Each resulting mutant D-amino acid oxidase coding sequence is cloned for (untagged) expression behind the T7 promoter in Novagen pET 24A and transformed into E. coli BL21 DE3. The cells are grown in a 1.0 l fermenter in LCM50 medium supplemented with 100 ug/ml kanamycin, induced for expression with 1 mM IPTG and harvested by low-speed centrifugation.
(§2) Approximately 7 g wet weight of cells is washed in water. The cells are resuspended in an equal volume of 50 mM/Mops/KOH buffer at pH 7.0 containing 2 mM EDTA, 2 mM DTT and 0.01 mM FAD. […] Rates of oxygen consumption (after substraction of any drift in the bases line) are measured. […]

[4] = target: T2, M213S (serine replacement for methionine) mutant form of R. gracilis D amino acid oxidase (Rhodotorula toruloides, UniProt P80324, M213S); test: Oxygen electrode assay of D-amino acid oxidase activity, M213S mutant, crude E. coli extract; format: biochemical; conditions: 25° C., 50 mM Mops/KOH pH 7.0, 0.01 mM FAD; ammonium salt of DL phosphinothricin; estimated enzyme purity in extract 35+/-15% of total protein
T2 construct: made in house; host or cells: E. coli BL21 DE3 (Novagen pET 24A, T7 promoter)
From the text: as §1, §2

[5] = test system: Nicotiana tabacum (transgenic, stig 1 D-amino acid oxidase and plastocyanin/PAT); test: Transgenic tobacco (stig1 D-amino acid oxidase M213R plus plastocyanin promoter PAT) sprayed with DL phosphinothricin; format: in vivo
From the text: In one variant of the method, the amino acid applied is racemic DL phosphinothricin. In this case, the DNA construct used for transformation comprises, in addition to the DNA sequence encoding a D-amino acid oxidase under operable expression control of a tissue specific female floral promoter region such as ‘stig 1’, also a DNA sequence (EMBL: A02774) a ‘PAT’ gene under operable control of a promoter region such as the region 5′ of the translational start of the plastocyanin gene of the Pisum sativum plastocyanin gene (EMBL accession number X16082). For example, the construct is the same as depicted in FIG. 1 except that the DNA sequence encoding D-amino acid oxidase is site-specifically mutated so that the M213R form of the enzyme is encoded. The plastocyanin promoter region provides for preferential expression in the green tissues of the plant. […] Thus, in this variant of the example, the non-phytotoxic substance D phosphinothricin is applied in its least costly and most readily available form as the commercial herbicide DL phosphinothricin racemate.

[6] = test system: tobacco plants (transgenic, TA 29 D-amino acid oxidase and plastocyanin/PAT); test: Transgenic tobacco (TA 29 D-amino acid oxidase plus plastocyanin promoter PAT) sprayed with DL phosphinothricin; format: in vivo; conditions: spray, rates between 250 g/ha and 5 kg/ha
From the text: Analagous to example 1, in one variant of the example, the amino acid applied is racemic DL phosphinothricin. In this case the DNA construct used for transformation comprises, in addition to the DNA sequence encoding a D-amino acid oxidase under operable expression control of a tissue specific male floral promoter region such as ‘TA 29’, also a DNA sequence encoding a phosphinothricin N-acetyl transferase gene such as the ‘PAT’ gene under operable control of a promoter region such as that from the plastocyanin gene (in this case the region from the Pisum sativum plastocyanin gene).

[7] = test system: wheat containing a PAT gene under barley plastocyanin promoter region; test: Reproductive tolerance of wheat containing PAT gene under barley plastocyanin promoter to DL phosphinothricin; format: in vivo; conditions: rates up of at least 2 kg/ha
From the text: The current invention provides a method of overcoming the problem of enabling the use of a cheap commercial herbicide, DL phosphinothricin, as both weed control and hybridising agent in the production of hybrid cereals and which method, furthermore, provides resultant hybrid cereals or rice in which DL phosphinothricin (or L phosphinothricin) can be safely used for weed control without substantial loss of yield. As a yet further benefit, selfed seed from the F1 generation which may later arise as volunteers in subsequent crops will be easier to manage since they, themselves, will generally be sterile if sprayed with controlling amounts of DL phosphinothricin. The same will hold for the progeny of pollen outcrossing from the F1 plants to weeds (e.g. red rice) or other cereals. The current invention provides genes and enzymes that convert a non-phytotoxic component, D-phosphinothricin, of a commercial herbicide formulation DL phosphinothricin, into the active L form. The PAT gene which converts L-phosphinothricin to N-acetyl L-phosphinithricin is known already and is used commercially to provide tolerance to DL phosphinothricin in crops. […]

[8] = spray, rates between 250 g/ha and 5 kg/ha

Compound | seed production after treatment [1] | viable pollen production after treatment [1] | further results
C[C@@H](N)C(=O)O [D alanine] | relatively little or no seed | near normal levels of viable pollen | –
NC(=O)C[C@@H](N)C(=O)O [D asparagine] | relatively little or no seed | near normal levels of viable pollen | –
N[C@H](CC(=O)O)C(=O)O [D aspartate] | relatively little or no seed | near normal levels of viable pollen | –
N[C@H](CCC(=O)O)C(=O)O [D glutamate] | relatively little or no seed | near normal levels of viable pollen | –
CC(C)C[C@@H](N)C(=O)O [D leucine] | relatively little or no seed | near normal levels of viable pollen | –
CSCC[C@@H](N)C(=O)O [D methionine] | relatively little or no seed | near normal levels of viable pollen | –
CP(=O)(O)CC[C@@H](N)C(=O)O [D-phosphinothricin] | relatively little or no seed | near normal levels of viable pollen | oxidation of pure enantiomer in control experiments [2]: up to twice the rate that the DL is
CP(=O)(O)CCC(N)C(=O)O (stereo not drawn) [DL phosphinothricin] | – | – | rate of oxidation (oxygen consumption) [3]: ~14 nmol/min/mg of protein of crude extract; rate of oxidation (oxygen consumption) [4]: ~4 nmol/min/mg of protein of crude extract; yield of plastocyanin/PAT plants without D to L converting activity in floral tissues ([5]; no heterologous D-amino acid oxidase co-expressed in floral tissues): no significant loss of yield; reproductive tolerance to the herbicide of plants with plastocyanin promoter/PAT gene ([5]; rates in excess of 2 kg/ha): substantially complete reproductive tolerance; female fertility of treated plants [5, 8]: conditionally female sterile; male fertility of treated plants [5, 8]: normal or near-normal male fertility; visible damage of treated plants [5, 8]: not visibly damaged; female fertility of treated plants [6]: normal or near-normal female fertility; male fertility of treated plants [6]: conditionally male sterile; visible damage of treated plants [6]: not visibly damaged; reproductive tolerance to application [7]: substantially reproductively tolerant
CP(=O)(O)CC[C@H](N)C(=O)O [L-form, L-phosphinothricin, reference compound] | – | – | oxidation of pure enantiomer in control experiments [2]: not oxidised at all
